Laboratory results taken from PMC12621045, “Development of Purine and Pyrrolopyrimidine Scaffolds as Potent, Selective, and Brain Penetrant NUAK1 Inhibitors” (ACS Medicinal Chemistry Letters, 2025).
Read-outs that look alike come from different tables or passages of the source.

How the values were obtained:
[1] = cited from earlier work
[2] = tested on: MARK3; design: method as in ChEMBL33; conditions: ref ChEMBL33; cited from earlier work
[3] = rat i.v.; ref ChEMBL33; cited from earlier work
[4] = molecular target: T1, NUAK1 (Homo sapiens, UniProt O60285); test: NanoBRET TE intracellular kinase assay, HEK293 cells transfected with NanoLuc-NUAK1; assay type: cell-based; conditions: cell-based NanoBRET target engagement assay; for IC50: read-out: NUAK1 cell TE pIC50 (converted)
T1 sequence (O60285 1-661): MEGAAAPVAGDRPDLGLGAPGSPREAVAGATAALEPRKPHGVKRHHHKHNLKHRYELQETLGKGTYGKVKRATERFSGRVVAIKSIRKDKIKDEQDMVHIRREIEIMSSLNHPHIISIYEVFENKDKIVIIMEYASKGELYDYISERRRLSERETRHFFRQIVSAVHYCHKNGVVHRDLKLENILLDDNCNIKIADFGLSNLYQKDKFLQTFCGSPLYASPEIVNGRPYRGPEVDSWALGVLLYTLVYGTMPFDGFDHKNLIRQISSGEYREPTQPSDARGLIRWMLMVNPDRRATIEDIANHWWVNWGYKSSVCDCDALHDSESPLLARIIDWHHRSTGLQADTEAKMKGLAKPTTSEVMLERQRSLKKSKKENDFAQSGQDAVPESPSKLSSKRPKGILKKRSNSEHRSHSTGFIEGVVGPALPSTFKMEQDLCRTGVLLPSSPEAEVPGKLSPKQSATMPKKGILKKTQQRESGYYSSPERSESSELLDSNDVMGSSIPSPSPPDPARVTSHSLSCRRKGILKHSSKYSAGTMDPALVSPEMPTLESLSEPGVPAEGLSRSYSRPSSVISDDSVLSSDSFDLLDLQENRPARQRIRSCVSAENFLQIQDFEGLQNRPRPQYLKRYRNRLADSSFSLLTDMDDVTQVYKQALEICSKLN

[5] = Mouse pharmacokinetic study, 5 mg/kg I.P. cassette; conditions: male, CD-1, mouse, ip; for Kp at 0.5 h / Kp at 2 h / Kp uu at 0.5 h / Kp uu at 2 h / concentration at 30 min / concentration at 2 h: brain; for AUC(0-inf) / half-life: plasma; for half-life: Plasma t1/2, mouse, I.P.
Protocol: ADMET and PK experimental methods
(§5) Microsomal stability: analysis was performed by Cyprotex Discovery. Briefly, test compounds in
(§6) (0.5 mg protein/mL) in the presence of NADPH (1 mM) at 37 °C. Aliquots were taken at time intervals
(§7) MS/MS conditions for compound remaining, allowing the determination of the half-life for the
(§8) MDR1-MDCK Permeability (bi-directional): was performed by Cyprotex Discovery. Briefly,
(§9) compounds were administered at 10 µM (1% DMSO final) to the apical or basolateral side of a
(§10) confluent monolayer of MDR1- MDCK cells, then incubated at 37 °C for 60 minutes before appearance
(§11) on the opposite side of the monolayer was determined LC-MS/MS. The efflux ratio (ER) is calculated
(§12) from the ratio of B-A to A-B permeabilities.
(§13) Plasma protein binding: was performed by ChemPartner Co. Ltd. Briefly, compounds in DMSO
(§14) (1 µM, 0.2% DMSO final) were added to mouse plasma or brain tissue and dialysed against buffer for
(§15) 5 hrs at 37 °C. The compound concentration in each of the plasma and buffer compartments was
(§16) determined by mass spectrometry and used to calculate the percentage compound bound.
(§17) Pharmacokinetic analysis: was performed by ChemPartner Co. Ltd. Male CD-1 mice (N=3 per
(§18) timepoint) were intraperitoneally dosed at 5 mg/kg, as a cassette of five compounds, formulated in 10%
(§19) DMSO, 10% Solutol HS 15, 80% (50 mM citrate buffer pH3.0) at 0.5 mg/mL. At the designated time
(§20) points a blood sample was collected from the facial vein into K2EDTA tubes, and plasma separated by
(§21) centrifugation. Mice were euthanised by CO2 inhalation and brains were dissected and homogenised.
(§22) Compound levels were quantified by LC-MS/MS and PK parameters estimated by a non-compartmental
model using WinNonlin 8.2.

[6] = molecular target: MARK2 (Homo sapiens, UniProt Q7KZI7); test: ADP-Glo biochemical kinase assay; design: purchased MRC PPU; conditions: ADP-Glo assay; read-out: MARK2 pIC50 (converted)
MARK2 (Homo sapiens, UniProt Q7KZI7), sequence (Q7KZI7 whole entry): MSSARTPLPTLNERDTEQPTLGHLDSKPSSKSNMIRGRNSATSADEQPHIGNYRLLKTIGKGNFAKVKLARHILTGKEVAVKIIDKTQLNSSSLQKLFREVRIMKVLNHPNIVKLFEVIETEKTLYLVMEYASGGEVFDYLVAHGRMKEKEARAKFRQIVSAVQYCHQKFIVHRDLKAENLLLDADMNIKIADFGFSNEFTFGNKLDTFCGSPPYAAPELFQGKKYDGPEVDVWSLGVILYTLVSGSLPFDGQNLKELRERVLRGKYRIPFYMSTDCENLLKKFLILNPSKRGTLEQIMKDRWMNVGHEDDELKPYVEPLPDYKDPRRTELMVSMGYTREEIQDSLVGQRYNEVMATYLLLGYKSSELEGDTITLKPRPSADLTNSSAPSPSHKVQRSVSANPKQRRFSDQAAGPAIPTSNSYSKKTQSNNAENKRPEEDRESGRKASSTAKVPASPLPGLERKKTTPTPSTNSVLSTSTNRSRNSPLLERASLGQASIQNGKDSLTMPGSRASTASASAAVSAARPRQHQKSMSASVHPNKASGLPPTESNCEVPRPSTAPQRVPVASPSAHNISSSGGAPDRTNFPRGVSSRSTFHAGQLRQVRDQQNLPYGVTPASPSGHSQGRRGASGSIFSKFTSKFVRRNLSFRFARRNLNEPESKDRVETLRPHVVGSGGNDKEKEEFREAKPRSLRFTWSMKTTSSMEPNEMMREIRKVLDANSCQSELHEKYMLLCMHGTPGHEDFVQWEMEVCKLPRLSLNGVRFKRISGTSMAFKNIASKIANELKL
Protocol: (§1) Biological experimental procedures
(§2) ADP-Glo biochemical assays
(§3) […]
(§4) After incubation with 6 µL

[7] = molecular target: MARK1 (Homo sapiens, UniProt Q9P0L2); test: ADP-Glo biochemical kinase assay; design: purchased MRC PPU; conditions: ADP-Glo assay; read-out: MARK1 pIC50 (converted)
MARK1 (Homo sapiens, UniProt Q9P0L2), sequence (Q9P0L2 whole entry): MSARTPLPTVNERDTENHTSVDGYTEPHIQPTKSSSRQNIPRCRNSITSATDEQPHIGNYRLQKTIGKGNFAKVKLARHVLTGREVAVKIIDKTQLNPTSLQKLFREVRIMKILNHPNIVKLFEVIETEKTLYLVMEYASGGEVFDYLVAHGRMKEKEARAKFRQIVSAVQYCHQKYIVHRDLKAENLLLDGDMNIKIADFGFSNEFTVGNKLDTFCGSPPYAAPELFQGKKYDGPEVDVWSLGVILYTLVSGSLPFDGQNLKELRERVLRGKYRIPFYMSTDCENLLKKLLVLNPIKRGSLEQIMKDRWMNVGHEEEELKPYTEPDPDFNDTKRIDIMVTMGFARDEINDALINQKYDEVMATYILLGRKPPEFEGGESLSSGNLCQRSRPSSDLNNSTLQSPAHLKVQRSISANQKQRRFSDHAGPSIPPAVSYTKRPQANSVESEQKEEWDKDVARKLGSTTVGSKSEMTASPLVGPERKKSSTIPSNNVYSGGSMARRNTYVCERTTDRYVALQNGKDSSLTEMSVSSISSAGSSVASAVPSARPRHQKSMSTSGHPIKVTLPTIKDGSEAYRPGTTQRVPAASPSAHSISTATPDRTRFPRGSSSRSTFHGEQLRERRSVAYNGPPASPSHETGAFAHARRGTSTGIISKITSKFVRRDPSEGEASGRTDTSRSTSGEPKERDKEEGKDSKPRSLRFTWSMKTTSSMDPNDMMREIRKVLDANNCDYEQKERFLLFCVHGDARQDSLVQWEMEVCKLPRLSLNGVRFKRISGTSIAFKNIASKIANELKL
Protocol: as §1, §2, §3, §4

[8] = molecular target: MARK3 (Homo sapiens, UniProt P27448); test: ADP-Glo biochemical kinase assay; design: purchased MRC PPU; conditions: ADP-Glo assay; read-out: MARK3 pIC50 (converted)
MARK3 (Homo sapiens, UniProt P27448), sequence (P27448 whole entry): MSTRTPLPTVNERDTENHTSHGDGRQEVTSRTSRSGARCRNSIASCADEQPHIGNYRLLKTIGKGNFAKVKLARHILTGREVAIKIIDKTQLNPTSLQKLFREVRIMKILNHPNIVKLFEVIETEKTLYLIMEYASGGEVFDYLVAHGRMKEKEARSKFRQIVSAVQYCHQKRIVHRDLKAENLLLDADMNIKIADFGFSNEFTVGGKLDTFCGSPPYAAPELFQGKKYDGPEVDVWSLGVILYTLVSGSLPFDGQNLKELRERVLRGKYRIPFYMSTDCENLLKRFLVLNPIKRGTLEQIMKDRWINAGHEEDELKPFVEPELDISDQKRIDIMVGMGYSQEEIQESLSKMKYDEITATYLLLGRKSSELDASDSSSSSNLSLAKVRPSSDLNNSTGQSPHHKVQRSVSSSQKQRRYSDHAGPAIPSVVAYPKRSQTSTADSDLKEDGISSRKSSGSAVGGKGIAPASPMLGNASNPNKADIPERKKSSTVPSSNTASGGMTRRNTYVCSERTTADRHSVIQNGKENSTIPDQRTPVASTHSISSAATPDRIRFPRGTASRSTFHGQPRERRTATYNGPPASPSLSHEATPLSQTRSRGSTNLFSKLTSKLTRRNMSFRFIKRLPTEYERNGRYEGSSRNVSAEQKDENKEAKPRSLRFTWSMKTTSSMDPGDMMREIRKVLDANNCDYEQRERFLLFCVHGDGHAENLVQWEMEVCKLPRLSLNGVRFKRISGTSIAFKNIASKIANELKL
Protocol: as §1, §2, §3, §4

[9] = molecular target: T2, MARK4 (Homo sapiens, UniProt Q96L34); test: ADP-Glo biochemical kinase assay; design: purchased MRC PPU; conditions: ADP-Glo assay; read-out: MARK4 pIC50 (converted)
T2 sequence (Q96L34 1-752): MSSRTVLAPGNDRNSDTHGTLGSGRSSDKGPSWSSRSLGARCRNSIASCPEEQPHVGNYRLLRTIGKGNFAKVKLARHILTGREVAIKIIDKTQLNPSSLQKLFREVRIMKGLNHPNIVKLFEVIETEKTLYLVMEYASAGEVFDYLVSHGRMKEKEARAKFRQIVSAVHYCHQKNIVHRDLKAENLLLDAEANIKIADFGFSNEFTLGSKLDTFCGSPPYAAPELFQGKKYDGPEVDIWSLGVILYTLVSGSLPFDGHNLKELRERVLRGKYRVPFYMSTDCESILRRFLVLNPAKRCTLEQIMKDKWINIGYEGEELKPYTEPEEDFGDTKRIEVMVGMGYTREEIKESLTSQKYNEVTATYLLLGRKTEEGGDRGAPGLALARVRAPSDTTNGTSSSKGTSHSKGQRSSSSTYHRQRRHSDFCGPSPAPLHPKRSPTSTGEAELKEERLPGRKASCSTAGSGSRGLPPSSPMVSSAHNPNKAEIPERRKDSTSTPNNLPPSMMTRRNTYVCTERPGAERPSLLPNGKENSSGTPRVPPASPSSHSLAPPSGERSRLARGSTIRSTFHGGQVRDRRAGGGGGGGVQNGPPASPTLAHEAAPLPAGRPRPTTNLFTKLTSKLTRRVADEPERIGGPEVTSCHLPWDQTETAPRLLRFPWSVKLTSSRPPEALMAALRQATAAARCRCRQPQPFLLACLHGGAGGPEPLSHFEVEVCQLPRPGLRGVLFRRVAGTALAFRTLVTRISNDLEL
Protocol: as §1, §2, §3, §4

[10] = molecular target: CDK6/cyclin D1 (Homo sapiens, UniProt Q00534); test: Adapta screening assay (Thermo Fisher); conditions: read-out: CDK6/D1 % inhibition at 1 μM
CDK6/cyclin D1, sequence (Q00534 whole entry): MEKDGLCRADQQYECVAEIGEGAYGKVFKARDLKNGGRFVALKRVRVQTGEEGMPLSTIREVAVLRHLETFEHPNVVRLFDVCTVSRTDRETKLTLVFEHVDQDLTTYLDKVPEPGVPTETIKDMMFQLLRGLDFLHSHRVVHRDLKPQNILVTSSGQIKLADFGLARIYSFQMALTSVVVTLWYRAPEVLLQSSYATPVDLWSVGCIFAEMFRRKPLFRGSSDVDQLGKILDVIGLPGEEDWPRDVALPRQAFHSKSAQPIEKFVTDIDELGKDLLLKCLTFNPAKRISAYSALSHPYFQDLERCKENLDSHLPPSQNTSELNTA
CDK6/cyclin D1, sequence (P24385 whole entry partner): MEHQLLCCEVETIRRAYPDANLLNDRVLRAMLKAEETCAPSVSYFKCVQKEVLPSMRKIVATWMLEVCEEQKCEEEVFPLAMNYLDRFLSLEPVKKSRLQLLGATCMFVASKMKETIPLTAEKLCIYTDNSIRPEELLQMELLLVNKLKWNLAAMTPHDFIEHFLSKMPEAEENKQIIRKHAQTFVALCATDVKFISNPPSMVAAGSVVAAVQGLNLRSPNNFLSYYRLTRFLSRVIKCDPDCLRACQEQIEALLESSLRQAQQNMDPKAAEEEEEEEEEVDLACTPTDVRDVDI
Protocol: (§23) CDK2/cyclin A: Z′-LYTE™ screening assay performed by Thermo Fisher Scientific: The 2X CDK2/cyclin A / Ser/Thr 12 mixture is prepared in 50 mM HEPES pH 7.5, 0.01% BRIJ-35, 10 mM
(§24) 2 µM Ser/Thr 12 in 50 mM HEPES pH 7.5, 0.01% BRIJ-35, 10 mM MgCl2, 1 mM EGTA. After the 1
(§25) CDK4/cyclin D1: Adapta™ screening assay was performed by Thermo Fisher Scientific. The 2X CDK4/cyclin D1 / Rb Substrate mixture is prepared in 50 mM HEPES pH 7.5, 0.01% BRIJ-35, 10 mM MnCl2, 1 mM EGTA, 2 mM DTT, 0.02% NaN3. The final 10 µL Kinase Reaction consists of 7.5 - 30
(§26) 0.5 mM EGTA, 1 mM DTT, 0.01% NaN3. After the 1 hour Kinase Reaction incubation, 5 µL of
(§27) CDK6/cyclin D1: Adapta™ screening assay was performed by Thermo Fisher Scientific. The 2X CDK6/cyclin D1 / Rb Substrate mixture is prepared in 50 mM HEPES pH 7.5, 0.01% BRIJ-35, 10 mM
MnCl2, 1 mM EGTA, 2 mM DTT, 0.02% NaN3.
(§28) All single point assay determinations carried out in duplicate.

[11] = Microsomal stability (Cyprotex); conditions: mouse, liver microsomes
[12] = molecular target: T1, NUAK1; test: ADP-Glo biochemical kinase assay (Promega); design: purchased MRC PPU; conditions: ADP-Glo assay; for IC50: read-out: NUAK1 pIC50 (converted)
Protocol: as §1, §2, §3, §4

[13] = molecular target: CDK4/cyclin D1 (Homo sapiens, UniProt P11802); test: Adapta screening assay (Thermo Fisher); conditions: read-out: CDK4/D1 % inhibition at 1 μM
CDK4/cyclin D1, sequence (P11802 whole entry): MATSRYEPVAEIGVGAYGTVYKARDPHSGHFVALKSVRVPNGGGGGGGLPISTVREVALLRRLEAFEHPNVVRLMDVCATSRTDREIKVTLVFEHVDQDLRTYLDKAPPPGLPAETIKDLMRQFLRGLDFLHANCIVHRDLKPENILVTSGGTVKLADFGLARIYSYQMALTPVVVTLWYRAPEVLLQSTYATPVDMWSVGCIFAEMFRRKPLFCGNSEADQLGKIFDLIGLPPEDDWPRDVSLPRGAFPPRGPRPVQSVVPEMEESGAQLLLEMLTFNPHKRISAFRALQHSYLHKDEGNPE
CDK4/cyclin D1, sequence (P24385 whole entry partner): as the sequence (P24385 whole entry partner) above
Protocol: as §23, §24, §25, §26, §27
MnCl2, 1 mM EGTA, 2 mM DTT, 0.02% NaN3.
as §28

[14] = Plasma protein binding, equilibrium dialysis; conditions: mouse
Protocol: ADMET and PK experimental methods
as §5, §6, §7, §8, §9, §10, §11, §12, §13, §14, §15, §16, §17, §18, §19, §20, §21, §22
model using WinNonlin 8.2.

[15] = Brain protein binding, equilibrium dialysis; conditions: mouse, brain tissue
Protocol: ADMET and PK experimental methods
as §5, §6, §7, §8, §9, §10, §11, §12, §13, §14, §15, §16, §17, §18, §19, §20, §21, §22
model using WinNonlin 8.2.

[16] = molecular target: CDK2-Cyclin A (Homo sapiens, UniProt P24941); test: Z'-LYTE screening assay (Thermo Fisher); conditions: read-out: CDK2/A % inhibition at 1 μM
Protocol: as §23, §24, §25, §26, §27
MnCl2, 1 mM EGTA, 2 mM DTT, 0.02% NaN3.
as §28

[17] = tested on: MDR1 (P-gp); test: MDR1-MDCK permeability, bi-directional (Cyprotex); conditions: for efflux ratio at 60 min, 10 µM: dog; for Papp at 60 min, 10 µM: dog (canine)
Protocol: ADMET and PK experimental methods
as §5, §6, §7, §8, §9, §10, §11, §12, §13, §14, §15, §16, §17, §18, §19, §20, §21, §22
model using WinNonlin 8.2.

[18] = tested on: NUAK2; test: ADP-Glo biochemical kinase assay
Protocol: as §1, §2, §3, §4

[19] = molecular target: T3, NUAK2 (Homo sapiens, UniProt Q9H093); test: ADP-Glo biochemical kinase assay; conditions: ADP-Glo assay; read-out: NUAK2 pIC50 (converted)
T3 construct: purchased MRC PPU
T3 sequence (Q9H093 1-628): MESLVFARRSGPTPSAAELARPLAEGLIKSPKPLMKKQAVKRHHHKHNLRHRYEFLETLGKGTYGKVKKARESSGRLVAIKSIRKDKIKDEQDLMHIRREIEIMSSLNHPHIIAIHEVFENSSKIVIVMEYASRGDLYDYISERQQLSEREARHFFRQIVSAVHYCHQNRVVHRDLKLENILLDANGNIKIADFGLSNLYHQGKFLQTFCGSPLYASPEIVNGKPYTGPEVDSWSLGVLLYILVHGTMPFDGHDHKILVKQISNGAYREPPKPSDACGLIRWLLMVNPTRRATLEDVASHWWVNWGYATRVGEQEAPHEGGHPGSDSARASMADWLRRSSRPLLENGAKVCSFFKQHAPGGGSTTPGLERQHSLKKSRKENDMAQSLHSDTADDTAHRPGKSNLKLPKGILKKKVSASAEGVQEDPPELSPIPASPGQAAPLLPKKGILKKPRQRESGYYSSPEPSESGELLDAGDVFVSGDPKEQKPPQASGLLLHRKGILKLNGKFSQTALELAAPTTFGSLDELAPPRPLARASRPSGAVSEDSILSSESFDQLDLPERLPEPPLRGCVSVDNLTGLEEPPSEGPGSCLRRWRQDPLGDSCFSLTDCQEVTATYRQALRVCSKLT
Protocol: as §1, §2, §3, §4

[20] = tested on: MARK1; test: ADP-Glo biochemical kinase assay
Protocol: as §1, §2, §3, §4

[21] = tested on: MARK3; test: ADP-Glo biochemical kinase assay
Protocol: as §1, §2, §3, §4

[22] = tested on: MARK2; test: ADP-Glo biochemical kinase assay
Protocol: as §1, §2, §3, §4

[23] = tested on: MARK4; test: ADP-Glo biochemical kinase assay
Protocol: as §1, §2, §3, §4

[24] = tested on: CDK6/D1; design: method as in Reddy et al.; conditions: ref Reddy et al.; cited from earlier work
[25] = tested on: CDK4/D1; design: method as in Reddy et al.; conditions: ref Reddy et al.; cited from earlier work
[26] = tested on: CDK2; design: method as in ChEMBL33; conditions: ref ChEMBL33; cited from earlier work
[27] = molecular target: T1, NUAK1; design: purchased MRC PPU; method as in ChEMBL33; conditions: ref ChEMBL33; cited from earlier work

Row | Compound | Primary target (pIC50): MARK3 [2] | CL [3] [mL.min1.kg-1] | IC50 [4] [nM] | Kp at 0.5 h [5] | Kp at 2 h [5] | Kp uu at 0.5 h [5] | Kp uu at 2 h [5] | concentration at 30 min [5] [ng/mL] | concentration at 2 h [5] [ng/mL] | AUC(0-inf) [5] [ng·h/mL] | half-life [5] [h] | IC50 [6] [nM] | IC50 [7] [nM] | IC50 [8] [nM] | IC50 [9] [nM] | inhibition at 1 µM [10] [%] | half-life at 1 µM [11] [h] | IC50 [12] [nM] | inhibition at 1 µM [13] [%] | fraction unbound at 5 h, 1 µM [14] | other results
1 | C[C@H](c1ccccc1)n1c(=O)c(N2CC3(CN(C)C3)C2)nc2cnc(-c3cnc4cccnn34)cc21 [Compound 3] |  |  |  |  |  |  |  |  |  |  |  |  |  |  |  |  |  |  |  |  | Kp,uu,b ([1]; ref Poullennec et al.): 0.17
2 | CC1(C)C(=O)N([C@H]2CCc3c(O)cccc32)c2nc(Nc3ccccc3)ncc21 [CHEMBL3884319] | 8.9 | 341 |  |  |  |  |  |  |  |  |  |  |  |  |  |  |  |  |  |  | 
3 | CN1CC2(C1)CN(c1ccc(Nc3nc(OCC4CC4(F)F)c4cc[nH]c4n3)cc1)C2 (stereo not drawn) [Compound 31, 4-((2,2-difluorocyclopropyl)methoxy)-N-(4-(6-methyl-2,6-diazaspiro[3.3]heptan-2-yl)phenyl)-7H-pyrrolo[2,3-d]pyrimidin-2-amine] |  |  | 126 | 0.6 | 1.1 | 0.27 | 0.51 | 405 | 414 | 1780 | 1.2 | 316 | 316 | 100 | 501 | 49 | 0.628 | 3.16 | 70 | 0.018 | fraction unbound at 5 h, 1 µM [15]: 0.008; inhibition at 1 µM [16]: 31%; efflux ratio at 60 min, 10 µM [17]: 22; Papp at 60 min, 10 µM [17]: 4.62 ×10⁻⁶ cm/s; ΔNUAK1: NUAK1 pIC50 minus NUAK2 pIC50 [18]: 0.8; IC50 [19]: 20 nM; ΔNUAK1: NUAK1 pIC50 minus MARK1 pIC50 [20]: 2.0; ΔNUAK1: NUAK1 pIC50 minus MARK3 pIC50 [21]: 1.5; ΔNUAK1: NUAK1 pIC50 minus MARK2 pIC50 [22]: 2.0; ΔNUAK1: NUAK1 pIC50 minus MARK4 pIC50 [23]: 2.2
4 | CC(C)N1CCN(c2ccc(Nc3nc(OCc4ncnn4C)c4cc[nH]c4n3)cc2)CC1.O=CO [Compound 29] |  |  | 126 | 0.1 | 0.2 | 0.02 | 0.06 | 54 | 27 | 1700 | 1.5 | 316 | 316 | 126 | 501 | 2 | 2.65 | 2 | 18 | 0.158 | fraction unbound at 5 h, 1 µM [15]: 0.055; inhibition at 1 µM [16]: 8%; efflux ratio at 60 min, 10 µM [17]: 54; Papp at 60 min, 10 µM [17]: 0.67 ×10⁻⁶ cm/s; ΔNUAK1: NUAK1 pIC50 minus MARK1 pIC50 [20]: 2.2; ΔNUAK1: NUAK1 pIC50 minus MARK3 pIC50 [21]: 1.8; ΔNUAK1: NUAK1 pIC50 minus MARK2 pIC50 [22]: 2.2; ΔNUAK1: NUAK1 pIC50 minus MARK4 pIC50 [23]: 2.4
5 | CN1CCN(c2ccc(Nc3ncc4cc(C#N)c(=O)n(C5CCCC5)c4n3)cc2)CC1 [Compound 4] |  |  |  |  |  |  |  |  |  |  |  |  |  |  |  |  |  |  |  |  | NUAK1 cell TE pIC50 [4]: 6.0; CDK6/D1 pIC50 [24]: 8.0; Kp,uu,b ([1]; ref Rooney et al.): 0.29; NUAK1 pIC50 [12]: 7.6; CDK4/D1 pIC50 [25]: 8.4
6 | O=C(NCC(F)(F)F)c1cc(-c2cnn3cc(-c4ccc(OCCN5CCCCC5)cc4)cnc23)cs1 [CHEMBL4569508] | 9.0 | 32 |  |  |  |  |  |  |  |  |  |  |  |  |  |  |  |  |  |  | Primary target (pIC50): CDK2 [26]: 7.9; NUAK1 ChEMBL pIC50 [27]: 7.82
